Assay results published in patent US20140343049A1, “DIHYDROFURAN DERIVATIVES AS INSECTICIDAL COMPOUNDS” (SYNGENTA PARTICIPATIONS AG, priority 2011, published 2014).

Tests used:
Format in all cases: in vivo
[1] = test system: Spodoptera littoralis (Egyptian cotton leafworm); assay: Spodoptera littoralis cotton leaf disc spray test; settings: foliar, 72 h, cotton leaf discs sprayed at 200 ppm, 5 L1 larvae, mortality, feeding behavior, growth regulation 3 days after treatment
Text: Cotton leaf discs were placed on agar in a 24-well microtiter plate and sprayed with test solutions at an application rate of 200 ppm. After drying, the leaf discs were infested with 5 L1 larvae. The samples were checked for mortality, feeding behavior, and growth regulation 3 days after treatment (DAT).

[2] = test system: Heliothis virescens (tobacco budworm); assay: Heliothis virescens egg test on artificial diet; settings: 96 h, 200 ppm (concentration in well 18 ppm), eggs 0-24 h old, 4 days, egg mortality, larval mortality, growth regulation
Experimental: Eggs (0-24 h old) were placed in 24-well microtiter plate on artificial diet and treated with test solutions at an application rate of 200 ppm (concentration in well 18 ppm) by pipetting. After an incubation period of 4 days, samples were checked for egg mortality, larval mortality, and growth regulation.

[3] = test system: Plutella xylostella (diamond back moth); assay: Plutella xylostella L2 larvae test on artificial diet; settings: 144 h, 200 ppm (concentration in well 18 ppm), 6 days, larval mortality and growth regulation
Experimental: (§1) 24-well microtiter plate (MTP) with artificial diet was treated with test solutions at an application rate of 200 ppm (concentration in well 18 ppm) by pipetting. After drying, the MTPs were infested with L2 larvae (7-12 per well). After an incubation period of 6 days, samples were checked for larval mortality and growth regulation.

[4] = test system: Diabrotica balteata (corn root worm); assay: Diabrotica balteata L2 larvae test on artificial diet; settings: 120 h, 200 ppm (concentration in well 18 ppm), 5 days, larval mortality and growth regulation
Experimental: as §1, with “A 24-well” for “24-well”, “(6-10” for “(7-12”, “5” for “6”
as §1, with “A 24-well” for “24-well”, “12.5” for “200”, “MTP's” for “MTPs”, “(6-10” for “(7-12”, “5” for “6”

[5] = test system: Thrips tabaci (onion thrips); assay: Thrips tabaci sunflower leaf disc spray test; settings: foliar, 168 h, sunflower leaf discs sprayed at 200 ppm, mixed ages, mortality after 7 days
Experimental: Sunflower leaf discs were placed on agar in a 24-well microtiter plate and sprayed with test solutions at an application rate of 200 ppm. […] After drying, the leaf discs were infested with a thrip population of mixed ages. After an incubation period of 7 days, samples were checked for mortality.

[6] = test system: Tetranychus urticae (two-spotted spider mite); assay: Tetranychus urticae bean leaf disc spray test; settings: foliar, 192 h, bean leaf discs sprayed at 200 ppm, mixed ages, egg, larval and adult mortality 8 days later
Text: Bean leaf discs on agar in 24-well microtiter plates were sprayed with test solutions at an application rate of 200 ppm. After drying, the leaf discs are infested with mite populations of mixed ages. 8 days later, discs are checked for egg mortality, larval mortality, and adult mortality. […]

[7] = test system: Myzus persicae (green peach aphid); assay: Myzus persicae (sachet) mixed population test; settings: 120 h, sucrose solution, application rate 12.5 ppm, mortality 5 days after infestation
Text: Test compounds were applied by pipette into 24 well plates and mixed with Sucrose solution. The plates were closed with a stretched Parafilm. A plastic stencil with 24 holes is placed onto the plate and infested pea seedlings were placed directly on the Parafilm. The infested plate is closed with a gel blotting paper and another plastic stencil and then turned upside down. 5 days after infestation the samples were checked on mortality. Application rate: 12.5 ppm.

CCNC(=O)c1ccc(C2=CC(c3cc(Cl)cc(Cl)c3)(C(F)(F)F)OC2)cc1C (stereo not drawn) [Compound A4]
≥ 80%: pest or weed control at 200 ppm [1] | pest or weed control at 200 ppm [2] | pest or weed control at 200 ppm [3] | pest or weed control at 200 ppm [4] | pest or weed control at 200 ppm [5] | pest or weed control at 200 ppm [6]

Cc1cc(C2=CC(c3cc(Cl)cc(Cl)c3)(C(F)(F)F)OC2)ccc1C(=O)NCc1cn(C)cn1 (stereo not drawn) [Compound A17]
≥ 80%: pest or weed control at 200 ppm [1] | pest or weed control at 200 ppm [2] | pest or weed control at 200 ppm [3] | pest or weed control at 200 ppm [4] | pest or weed control at 200 ppm [5] | pest or weed control at 200 ppm [6]

Cc1cc(C2=CC(c3cc(Cl)cc(Cl)c3)(C(F)(F)F)OC2)ccc1C(=O)NCCCBr (stereo not drawn) [Compound A19]
≥ 80%: pest or weed control at 200 ppm [1] | pest or weed control at 200 ppm [2] | pest or weed control at 200 ppm [3] | pest or weed control at 200 ppm [4] | pest or weed control at 200 ppm [5] | pest or weed control at 200 ppm [6]

Cc1cc(C2=CC(c3cc(Cl)cc(Cl)c3)(C(F)(F)F)OC2)ccc1C(=O)NCCC(F)(F)F (stereo not drawn) [Compound A20]
≥ 80%: pest or weed control at 200 ppm [1] | pest or weed control at 200 ppm [2] | pest or weed control at 200 ppm [3] | pest or weed control at 200 ppm [4] | pest or weed control at 200 ppm [5] | pest or weed control at 200 ppm [6]

CCC(C)NC(=O)c1ccc(C2=CC(c3cc(Cl)cc(Cl)c3)(C(F)(F)F)OC2)cc1C (stereo not drawn) [Compound A27]
≥ 80%: pest or weed control at 200 ppm [1] | pest or weed control at 200 ppm [2] | pest or weed control at 200 ppm [3] | pest or weed control at 200 ppm [4] | pest or weed control at 200 ppm [5] | pest or weed control at 200 ppm [6]

Cc1cc(C2=CC(c3cc(Cl)cc(Cl)c3)(C(F)(F)F)OC2)ccc1C(=O)NCC(F)F (stereo not drawn) [Compound A29]
≥ 80%: pest or weed control at 200 ppm [1] | pest or weed control at 200 ppm [2] | pest or weed control at 200 ppm [3] | pest or weed control at 200 ppm [4] | pest or weed control at 200 ppm [5] | pest or weed control at 200 ppm [6]

C#CC1(NC(=O)c2ccc(C3=CC(c4cc(Cl)cc(Cl)c4)(C(F)(F)F)OC3)cc2C)CCCCC1 (stereo not drawn) [Compound A30]
≥ 80%: pest or weed control at 200 ppm [3] | pest or weed control at 200 ppm [4] | pest or weed control at 200 ppm [5] | pest or weed control at 200 ppm [6]

Cc1cc(C2=CC(c3cc(Cl)cc(Cl)c3)(C(F)(F)F)OC2)ccc1C(=O)NCCC1OCCO1 (stereo not drawn) [Compound A31]
≥ 80%: pest or weed control at 200 ppm [1] | pest or weed control at 200 ppm [3] | pest or weed control at 200 ppm [4] | pest or weed control at 200 ppm [5] | pest or weed control at 200 ppm [6]

CSCCNC(=O)c1ccc(C2=CC(c3cc(Cl)cc(Cl)c3)(C(F)(F)F)OC2)cc1C (stereo not drawn) [Compound A49]
≥ 80%: pest or weed control at 200 ppm [1] | pest or weed control at 200 ppm [2] | pest or weed control at 200 ppm [3] | pest or weed control at 200 ppm [4] | pest or weed control at 200 ppm [6]

Cc1cc(C2=CC(c3cc(Cl)cc(Cl)c3)(C(F)(F)F)OC2)ccc1C(=O)Nc1cccc2ncccc12 (stereo not drawn) [Compound A57]
≥ 80%: pest or weed control at 200 ppm [1] | pest or weed control at 200 ppm [2] | pest or weed control at 200 ppm [3] | pest or weed control at 200 ppm [4] | pest or weed control at 200 ppm [6]

Cc1cc(C2=CC(c3cc(Cl)cc(Cl)c3)(C(F)(F)F)OC2)ccc1C(=O)Nc1cccc(F)c1 (stereo not drawn) [Compound A59]
≥ 80%: pest or weed control at 200 ppm [1] | pest or weed control at 200 ppm [2] | pest or weed control at 200 ppm [3] | pest or weed control at 200 ppm [5]

Cc1cc(C2=CC(c3cc(Cl)cc(Cl)c3)(C(F)(F)F)OC2)ccc1C(=O)NCC1CCS1 (stereo not drawn) [Compound A80]
≥ 80%: pest or weed control at 200 ppm [1] | pest or weed control at 200 ppm [2] | pest or weed control at 200 ppm [3] | pest or weed control at 200 ppm [4] | pest or weed control at 200 ppm [6]

Cc1cc(C2=CC(c3cc(Cl)cc(Cl)c3)(C(F)(F)F)OC2)ccc1C(=O)NCC1CCS1(=O)=O (stereo not drawn) [Compound A81]
≥ 80%: pest or weed control at 200 ppm [1] | pest or weed control at 200 ppm [2] | pest or weed control at 200 ppm [3] | pest or weed control at 200 ppm [4] | pest or weed control at 200 ppm [6]

CO/N=C/NC(=O)c1ccc(C2=CC(c3cc(Cl)cc(Cl)c3)(C(F)(F)F)OC2)cc1C (stereo not drawn) [Compound A86, (E)-4-[5-(3,5-Dichlorophenyl)-5-trifluoromethyl-2,5-dihydro-furan-3-yl]-N-[(methoxyimino)methyl]-2-methylbenzamide]
≥ 80%: pest or weed control at 200 ppm [1] | pest or weed control at 200 ppm [2] | pest or weed control at 200 ppm [3] | pest or weed control at 200 ppm [4] | pest or weed control at 200 ppm [5] | pest or weed control at 200 ppm [6]

CCNC(=O)c1ccc(C2=CC(c3cc(Cl)cc(Cl)c3)(C(F)(F)F)OC2)nc1C (stereo not drawn) [Compound C2]
≥ 80%: pest or weed control at 200 ppm [1] | pest or weed control at 200 ppm [3] | pest or weed control at 200 ppm [4] | pest or weed control at 200 ppm [5] | pest or weed control at 200 ppm [6]

COCC(C)NC(=O)c1ccc(C2=CC(c3cc(Cl)cc(Cl)c3)(C(F)(F)F)OC2)nc1C (stereo not drawn) [Compound C4]
≥ 80%: pest or weed control at 200 ppm [1] | pest or weed control at 200 ppm [5]

CCC(C)NC(=O)c1ccc(C2=CC(c3cc(Cl)cc(Cl)c3)(C(F)(F)F)OC2)nc1C (stereo not drawn) [Compound C7]
≥ 80%: pest or weed control at 200 ppm [1] | pest or weed control at 200 ppm [2] | pest or weed control at 200 ppm [3] | pest or weed control at 200 ppm [4] | pest or weed control at 200 ppm [5]

Cc1nc(C2=CC(c3cc(Cl)cc(Cl)c3)(C(F)(F)F)OC2)ccc1C(=O)NCc1ccc(Cl)nc1 (stereo not drawn) [Compound C14]
≥ 80%: pest or weed control at 200 ppm [1] | pest or weed control at 200 ppm [2] | pest or weed control at 200 ppm [3] | pest or weed control at 200 ppm [4] | pest or weed control at 200 ppm [6]

Cc1nc(C2=CC(c3cc(Cl)cc(Cl)c3)(C(F)(F)F)OC2)ccc1C(=O)NC1(C)CSC1 (stereo not drawn) [Compound C17]
≥ 80%: pest or weed control at 200 ppm [1] | pest or weed control at 200 ppm [3] | pest or weed control at 200 ppm [4] | pest or weed control at 200 ppm [5] | pest or weed control at 200 ppm [6]

Cc1nc(C2=CC(c3cc(Cl)cc(Cl)c3)(C(F)(F)F)OC2)ccc1C(=O)NC1CSC1 (stereo not drawn) [Compound C19]
≥ 80%: pest or weed control at 200 ppm [1] | pest or weed control at 200 ppm [3] | pest or weed control at 200 ppm [4] | pest or weed control at 200 ppm [5] | pest or weed control at 200 ppm [6]

Cc1nc(C2=CC(c3cc(Cl)cc(Cl)c3)(C(F)(F)F)OC2)ccc1C(=O)NC1CC2CCC1C2 (stereo not drawn) [Compound C20]
≥ 80%: pest or weed control at 200 ppm [1] | pest or weed control at 200 ppm [2] | pest or weed control at 200 ppm [3] | pest or weed control at 200 ppm [4] | pest or weed control at 200 ppm [5]

Cc1nc(C2=CC(c3cc(Cl)cc(Cl)c3)(C(F)(F)F)OC2)ccc1C(=O)NC1CCC1 (stereo not drawn) [Compound C21]
≥ 80%: pest or weed control at 200 ppm [1] | pest or weed control at 200 ppm [2] | pest or weed control at 200 ppm [3] | pest or weed control at 200 ppm [4] | pest or weed control at 200 ppm [5]

Cc1cc(C2=CC(c3cc(Cl)cc(Cl)c3)(C(F)(F)F)OC2)ccc1C(=O)NCCC(F)(F)F (stereo not drawn) [Compound D6]
≥ 80%: pest or weed control at 12.5 ppm [7]

CCC(C)NC(=O)c1ccc(C2=CC(c3cc(Cl)cc(Cl)c3)(C(F)(F)F)OC2)cc1C (stereo not drawn) [Compound D7]
≥ 80%: pest or weed control at 12.5 ppm [7]

Cc1cc(C2=CC(c3cc(Cl)cc(Cl)c3)(C(F)(F)F)OC2)ccc1C(=O)NC1CC2CCC1C2 (stereo not drawn) [Compound D22]
≥ 80%: pest or weed control at 200 ppm [3] | pest or weed control at 200 ppm [4] | pest or weed control at 200 ppm [5]

Cc1cc(C2=CC(c3cc(Cl)cc(Cl)c3)(C(F)(F)F)OC2=O)ccc1C(=O)NCC(=O)NCC(F)(F)F (stereo not drawn) [Compound E5]
≥ 80%: pest or weed control at 200 ppm [1] | pest or weed control at 200 ppm [2] | pest or weed control at 200 ppm [3] | pest or weed control at 200 ppm [4] | pest or weed control at 200 ppm [6]

Cc1cc(C2=CC(c3cc(Cl)cc(Cl)c3)(C(F)(F)F)OC2=O)ccc1C(=O)NC1CCC1 (stereo not drawn) [Compound E18]
≥ 80%: pest or weed control at 200 ppm [5]
